Data published in patent publication US20180110774A1, “COMPOSITIONS AND METHODS FOR TREATMENT OF PULMONARY HYPERTENSION” (STC.UNM, priority 2015, published 2018).

Tests used:
[1] = tested on: perivascular T cells (CD3+); experiment: Perivascular CD3+ T cells in lung sections of mice exposed to chronic hypoxia (immunohistochemistry); assay type: in vivo; settings: WT mice, CH for 2, 5 or 21 days; SR1001 0.625 mg/day for 25 g mouse s.c.; vs vehicle
Procedure: FIGS. 5A-D—Inhibition of TH17 cell development decreases CH-induced increases in perivascular T cells. Following treatment, lungs sections were stained with an anti-CD3 antibody to allow quantification of CD3+ T cells in the perivascular region of the lungs. The RORyt specific inhibitor, SR1001 was delivered daily by sub-cutaneous injection (0.625 mg/day for 25 g mouse) for the length of normoxic or CH exposure. (A) Perivascular CD3+ cells from mice exposed to 2 days, (B) 5 days or (C) 21 days of normoxia or CH. (D) Representative images of lung sections from mice exposed to CH with or without SR1001. Values are means±SEM, *p<0.05 vs. normoxia vehicle. n=3-4/group, 5-15 arteries<150 μm outer circumference, per mouse, analyzed by 2-way ANOVA followed by multiple comparisons Student-Newman-Keuls test.
Methods: Age- and sex-matched mice C57BL/6J wild-type (WT), RAG1 KO mice (lack mature T and B cells), IL-17-GFP mice (express EGFP in cells expressing IL-17A), were used in these studies (The Jackson Laboratory). Mice were exposed to chronic hypoxia (CH) for 2 to 21 days in a hypobaric chamber maintained at a barometric pressure of 380 mmHg. Normoxic animals were housed in identical cages in the same facility under normobaric conditions (PB=630 mmHg in Albuquerque, N. Mex.). […]

established PH due to CH = experiment: Established CH-induced pulmonary hypertension (reversal: 3 weeks CH, then SR1001 for 2 more weeks in CH); assay type: in vivo; settings: mice
Procedure: FIGS. 7A-D—TH17 cell inhibition attenuates increases in RVSP in established PH. Wild-type mice were exposed to CH for 21 days followed by administration of SR1001 (25 mg/kg/day s.c.) for an additional 14 days in CH. (A) RVSP. (B) Fulton's index. (C) Pulmonary arterial remodeling. (D) % Hematocrit. Values are means±SEM; *p<0.05 vs. vehicle, n=5-6/group, analyzed by unpaired T-test.
(§1) Methods: Age- and sex-matched mice C57BL/6J wild-type (WT), RAG1 KO mice (lack mature T and B cells), IL-17-GFP mice (express EGFP in cells expressing IL-17A), were used in these studies (The Jackson Laboratory). Mice were exposed to chronic hypoxia (CH) for 2 to 21 days in a hypobaric chamber maintained at a barometric pressure of 380 mmHg. Normoxic animals were housed in identical cages in the same facility under normobaric conditions (PB=630 mmHg in Albuquerque, N. Mex.).
To follow up on the immunologic timing of events, studies were undertaken to understand whether PH due to CH might be reversed once already established by inhibiting TH17 cell development. Therefore, after 3 weeks of CH, osmotic pumps containing SR1001 (0.625 mg/day for 25 g mouse). were implanted sub-cutaneously and animals were immediately returned to CH for an additional 2 weeks (5 weeks of CH total).

TH17 cell development [2] = settings: Solt et al., 2011; cited from earlier work
CH-induced PH = experiment: Development of chronic hypoxia (CH)-induced pulmonary hypertension, 21 days; assay type: in vivo; settings: mice, CH 21 days; SR1001 0.625 mg/day for 25 g mouse s.c. osmotic pump
Procedure: FIGS. 6A-D—Inhibition of TH17 cell polarization attenuates the development of CH-induced PH. SR1001 prepared in propylene glycol, 0.625 mg/day for 25 g mouse, was delivered sub-cutaneously via an implantable osmotic pump. Mice were exposed to normoxia or chronic hypoxia for 21 days, at which point (A) RVSP, (B) Fulton's index, (C) pulmonary arterial % wall thickness (<150 μm diameter) and (D) hematocrit were measured. Values are means±SEM; *p<0.05 vs. normoxia vehicle #p<0.05 vs. normoxic SR1001, n=4-5/group, analyzed by 2-way ANOVA followed by multiple comparisons Student-Newman-Keuls test.
as §1
CD4+ T cells contribute to chronic hypoxia-induced pulmonary hypertension. To directly assess the contribution of T cells to CH-induced PH, recombination-activating gene 1 (RAG1) knockout mice, which lack the enzyme that plays a crucial role in the development of T and B cells were studied. Therefore, RAG1 KO mice lack mature T and B cells (Mombaerts et al., 1992). RAG1 KO mice were exposed to CH for 21 days or left in normoxia. […] RVSP was measured by direct cardiac puncture under isoflurane anesthesia (Bierer et al., 2011). The inventors also isolated CD4^+ or CD8+ cells from the lymph nodes of WT mice by negative selection using a magnetic bead cell isolation kit (Miltenyi Biotec). 2.5×10^5 cells were injected into RAG1 KO mice. After 2 weeks mice were exposed to CH or normoxia.

RORγt = molecular target: T1, RORγt (Homo sapiens, UniProt P51449); settings: selective inverse agonist; Solt et al., 2011, 2012; cited from earlier work
T1 sequence (P51449 1-497 isoform P51449-2): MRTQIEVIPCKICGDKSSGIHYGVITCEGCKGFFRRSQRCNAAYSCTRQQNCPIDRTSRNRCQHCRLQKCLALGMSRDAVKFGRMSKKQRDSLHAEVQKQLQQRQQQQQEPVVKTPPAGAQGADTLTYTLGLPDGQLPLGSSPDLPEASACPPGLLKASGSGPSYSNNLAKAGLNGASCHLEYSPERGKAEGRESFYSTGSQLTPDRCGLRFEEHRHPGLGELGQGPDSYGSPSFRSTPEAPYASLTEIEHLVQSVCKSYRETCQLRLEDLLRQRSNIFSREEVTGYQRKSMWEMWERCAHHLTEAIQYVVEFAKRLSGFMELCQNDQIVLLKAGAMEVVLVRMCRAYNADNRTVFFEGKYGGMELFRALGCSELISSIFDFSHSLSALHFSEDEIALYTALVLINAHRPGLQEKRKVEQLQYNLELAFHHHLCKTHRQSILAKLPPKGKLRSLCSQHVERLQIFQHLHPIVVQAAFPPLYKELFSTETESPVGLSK

TH17 cell development [3] = settings: Solt et al., 2011; cited from earlier work; remark: listed apart in the source
RORα = molecular target: T2, RORα (Homo sapiens, UniProt P35398); settings: selective inverse agonist; Solt et al., 2011, 2012; cited from earlier work
T2 sequence (P35398 1-523): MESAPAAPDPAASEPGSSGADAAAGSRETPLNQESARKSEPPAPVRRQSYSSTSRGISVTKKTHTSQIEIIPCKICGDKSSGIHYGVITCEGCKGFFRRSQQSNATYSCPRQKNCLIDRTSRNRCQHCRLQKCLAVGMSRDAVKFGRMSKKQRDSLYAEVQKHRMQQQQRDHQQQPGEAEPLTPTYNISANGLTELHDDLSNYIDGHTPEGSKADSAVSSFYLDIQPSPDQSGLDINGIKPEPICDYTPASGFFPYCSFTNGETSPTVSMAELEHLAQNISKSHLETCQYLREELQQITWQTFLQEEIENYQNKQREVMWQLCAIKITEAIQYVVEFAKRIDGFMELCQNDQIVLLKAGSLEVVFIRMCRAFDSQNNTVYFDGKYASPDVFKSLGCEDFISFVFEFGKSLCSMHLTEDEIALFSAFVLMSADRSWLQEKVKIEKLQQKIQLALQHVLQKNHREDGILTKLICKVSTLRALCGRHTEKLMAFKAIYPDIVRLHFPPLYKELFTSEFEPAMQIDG

[4] = 3 weeks CH then SR1001 for additional 2 weeks in CH

With CC(=O)Nc1nc(C)c(S(=O)(=O)Nc2ccc(C(O)(C(F)(F)F)C(F)(F)F)cc2)s1 [SR1001, N-(5-(N-(4-(1,1,1,3,3,3-hexafluoro-2-hydroxypropan-2-yl)phenyl)sulfamoyl)-4-methylthiazol-2-yl)acetamide] the “perivascular T cells (CD3+) in the pulmonary arterial perivascular region” value [1] was “significant reduction”, the “already elevated RVSP” value (established PH due to CH; 3 weeks CH then SR1001 (0.625 mg/day for 25 g mouse, s.c. osmotic pump) for additional 2 weeks in CH) was “significantly decreased” and the “perivascular T cells in the lungs” value (established PH due to CH; [4]) was “significant decrease”. The pulmonary arterial remodeling (established PH due to CH; [4]) was “no effect”, the “RV remodeling (Fulton's index)” value (established PH due to CH; 3 weeks CH then SR1001 for additional 2 weeks in CH, p<0.0583) was “strong trend for a decrease” and the “TH17 cell development in vitro” value (TH17 cell development [2]) was “inhibits TH17 cell development”. The “CH-induced increase in RV remodeling (Fulton's index)” value (CH-induced PH) was “attenuated”, the “CH-induced increase in RVSP” value (CH-induced PH) was “attenuated” and the “CH-induced increase in pulmonary arterial remodeling (% wall thickness)” value (CH-induced PH) was “attenuated”. The “activity of nuclear receptor RORγt” value (RORγt) was “inhibits the activity”, the “TH17 cell development in vivo” value (TH17 cell development [3]) was “inhibits TH17 cell development” and the “activity of nuclear receptor RORα” value (RORα) was “inhibits the activity”.
